Data as given in patent US8431593B2, “Heteroaryl amide derivatives” (H. Lundbeck A/S, priority 2006, dated 2013).

target: T1, P2X7 receptor (Homo sapiens, UniProt Q99572); assay: P2X7 calcium mobilization assay, high throughput, antagonist activity (Example 4A); format: cell-based; conditions: not given
T1 construct: host or cells: SH-SY5Y
T1 sequence (Q99572 1-595): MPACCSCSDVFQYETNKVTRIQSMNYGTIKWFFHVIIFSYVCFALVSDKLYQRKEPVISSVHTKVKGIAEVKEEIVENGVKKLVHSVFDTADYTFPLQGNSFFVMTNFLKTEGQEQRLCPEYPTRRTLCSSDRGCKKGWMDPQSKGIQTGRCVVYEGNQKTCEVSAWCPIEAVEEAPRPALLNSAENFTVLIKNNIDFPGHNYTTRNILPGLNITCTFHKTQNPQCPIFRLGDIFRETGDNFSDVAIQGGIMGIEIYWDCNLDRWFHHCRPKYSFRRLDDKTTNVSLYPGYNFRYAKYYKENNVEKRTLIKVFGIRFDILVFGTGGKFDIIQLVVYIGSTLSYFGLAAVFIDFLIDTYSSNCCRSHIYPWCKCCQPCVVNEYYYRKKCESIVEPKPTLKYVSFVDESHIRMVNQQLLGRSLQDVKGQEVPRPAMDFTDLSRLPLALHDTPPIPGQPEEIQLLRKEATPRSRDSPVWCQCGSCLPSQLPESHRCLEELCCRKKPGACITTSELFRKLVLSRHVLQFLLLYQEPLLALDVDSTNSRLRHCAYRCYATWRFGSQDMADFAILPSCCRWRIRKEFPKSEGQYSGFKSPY
Protocol: One day prior to the experiment, cells are plated at a density of 100,000 cells/well in a 96 well black/clear TC plate (Corning® Costar®, Sigma-Aldrich Co., St. Louis, Mo.). […] After one hour dye incubation, wells are rinsed once with 50 μL assay solution, and are then incubated for an hour at room temperature with 100 μL assay solution containing the test compound. […] After the one hour incubation, plates are transferred to a FLIPR^TETRA instrument (Molecular Devices, Sunnyvale, Calif.) for calcium mobilization analysis.
First, the average maximum relative fluorescent unit (RFU) response from the negative control wells (no agonist) is subtracted from the maximum response detected for each of the other experimental wells. Second, average maximum RFU response is calculated for the positive control wells (agonist wells).

| Compound | IC50 [µM] |
| --- | --- |
| O=C(NCC12CC3CC(CC(C3)C1)C2)c1cccc2nc(CN(CCO)CCO)cn12 [Compound 136, N-(adamantan-1-ylmethyl)-2-{[bis(2-hydroxyeth-yl)amino]methyl}imi-dazo[1,2-a]pyridine-5-carboxamide] | < 2 |

same assay, conditions: 50% decrease in the fluorescence response of cells exposed to 80 μM 2′(3′)-O-(4-benzoyl-benzoyl)adenosine 5′-triphosphate; Example 4A; read-out: IC50

| IC50 [µM] | Compound |
| --- | --- |
| < 2 | O=C(NCC12CC3CC(CC(C3)C1)C2)c1cccc2nc(C(=O)N3CCOCC3)cn12 [Compound 529, N-(adamantan-1-ylmethyl)-2-(morpholin-4-ylcarbonyl)imidazo[1,2-a]pyridine-5-carboxamide] |
| < 2 | CC(CO)c1cn2c(C(=O)NCC34CC5CC(CC(C5)C3)C4)cccc2n1 (stereo not shown) [Compound 535, N-(adamantan-1-ylmethyl)-2-(2-hydroxy-1-methylethyl)imidazo[1,2-a]pyridine-5-carboxamide] |
| < 2 | C[C@H]1CNCCN1C(=O)c1cn2c(C(=O)NCC34CC5CC(CC(C5)C3)C4)cccc2n1 [Compound 601, N-(adamantan-1-ylmethyl)-2-{[(2S)-2-methylpiperazin-1-yl]carbonyl}imidazo [1,2-a]pyridine-5-carboxamide] |
| < 2 | O=C(NCC12CC3CC(CC(C3)C1)C2)c1cccc2nc(CCI)cn12 [Compound 599, N-(adamantan-1-ylmethyl)-2-(2-iodoethyl)imidazo[1,2-a]pyridine-5-carboxamide] |

same assay, conditions: 50% decrease in the fluorescence response of cells exposed to 80 μM of 2′(3′)-O-(4-benzoyl-benzoyl)adenosine 5′-triphosphate; Example 4A; read-out: IC50

| IC50 [µM] | Compound |
| --- | --- |
| < 2 | CC(C(=O)N1CCC[C@@H](N)C1)c1cn2c(C(=O)NCC34CC5CC(CC(C5)C3)C4)cccc2n1 (stereo partly shown) [Compound 751, N-(adamantan-1-ylmethyl)-2-[2-(3-aminopiperidin-1-yl)-1-methyl-2-oxoethyl]imidazo [1,2-a]pyridine-5-carboxamide] |
| < 2 | NC1CCN(C(=O)c2cn3c(C(=O)NCC45CC6CC(CC(C6)C4)C5)cccc3n2)CC1 [Compound 626, N-(adamantan-1-ylmethyl)-2-[(4-aminopiperidin-1-yl)carbonyl]imidazo[1,2-a]pyridine-5-carboxamide] |
| < 2 | O=C(NCCCN1CCOCC1)c1cn2c(C(=O)NCC34CC5CC(CC(C5)C3)C4)cccc2n1 [Compound 654, 5-N-(adamantan-1-ylmethyl)-2-N-(3-morpholin-4-ylpropyl)imidazo [1,2-a]pyridine-2,5-dicarboxamide] |

same assay, conditions: 50% decrease in the fluorescence response of cells exposed to 80 μM of 2′(3′)-O-(4-benzoyl-benzoyl)adenosine 5′-triphosphate; determined as in Example 4A; read-out: IC50

| IC50 [µM] | Compound |
| --- | --- |
| < 2 | O=C(NCC1(c2ccc(Cl)cc2)CCCCC1)c1cccc2nc(CSc3nnn[nH]3)cn12 [Compound 915, N-{[1-(4-chlorophenyl)cyclohexyl]methyl}-2-[(1H-tetrazol-5-ylthio)methyl] imidazo [1,2-a]pyridine-5-carboxamide] |
| < 2 | CC(C)CC(CNC(=O)c1cccc2nc(C(Cc3ccccn3)C(=O)O)cn12)c1ccc(Cl)cc1 (stereo not shown) [Compound 938, 2-(5-{[2-(4-chlorophenyl)-4-methylpentyl]carbamoyl}imidazo[1,2-a]pyridin-2-yl)-3-pyridin-2-ylpropanoic acid] |
| < 2 | O=C(Cc1cn2c(C(=O)NCC3(c4cccnc4)CCCCC3)cccc2n1)NC1CCCC1 [Compound 865, 2-[2-(cyclopentylamino)-2-oxoethyl]-N-[(1-pyridin-3-ylcyclohexyl)methyl] imidazo[1,2-a] pyridine-5-carboxamide] |
| < 2 | O=C(NCC1(c2ccc(Cl)cc2)CCCCC1)c1cccc2nc(Cn3nnc(CCO)n3)cn12 [Compound 919, N-{[1-(4-chlorophenyl)cyclohexyl]methyl}-2-{[5-(2-hydroxyethyl)-2H-tetrazol-2-yl]methyl}imidazo[1,2-a]pyridine-5-carboxamide] |

| Compound | IC50 [µM] |
| --- | --- |
| CN(C)C1CCCN(C(=O)Cc2cn3c(C(=O)NCC4(c5ccc(Cl)cc5)CCOCC4)cccc3n2)C1 (stereo not shown) [Compound 899, N-{[4-(4-chlorophenyl)tetrahydro-2H-pyran-4-yl]methyl}-2-{2-[3-(dimethylamino)piperidin-1-yl]-2-oxoethyl} imidazo[1,2-a] pyridine-5-carboxamide] | < 2 |

same assay, conditions: P2X7 calcium mobilization, Example 4A; 50% decrease in the fluorescence response of cells exposed to 80 μM of (2′(3′)-O-(4-benzoyl-benzoyl)adenosine 5′-triphosephate); read-out: IC50

| IC50 [µM] | Compound |
| --- | --- |
| < 2 | CC(C)CC(CNC(=O)c1cccc2nc(CN3CCCC3)cn12)c1ccc(Cl)cc1 (stereo not shown) [Compound 1036, N-[2-(4-chlorophenyl)-4-methylpentyl]-2-(pyrrolidin-1-ylmethyl) imidazo[1,2-a]pyridine-5-carboxamide] |

same assay, conditions: SH-SY5Y cells; 50% decrease in fluorescence response to 80 μM BzATP; read-out: IC50

| IC50 [µM] | Compound |
| --- | --- |
| < 2 | O=C1CN(C(=O)Cc2cn3c(C(=O)NCC45CC6CC(CC(C6)C4)C5)cccc3n2)CCN1 [Compound 46, N-(adamantan-1-ylmethyl)-2-[2-oxo-2-(3-oxopiperazin-1-yl)ethyl]imidazo[1,2-a]pyridine-5-carboxamide] |
| < 2 | CCNC(=O)Cc1cn2c(C(=O)NCC34CC5CC(CC(C5)C3)C4)cccc2n1 [Compound 17, N-(adamantan-1-ylmethyl)-2-[2-(ethylamino)-2-oxoethyl]imidazo[1,2-a]pyridine-5-carboxamide] |
| < 2 | Cc1ccn(Cc2cn3c(C(=O)NCC45CC6CC(CC(C6)C4)C5)cccc3n2)n1 [Compound 210, N-(adamantan-1-ylmethyl)-2-[(3-methyl-1H-pyrazol-1-yl)methyl]imidazo[1,2-a]pyridine-5-carboxamide] |
| < 2 | NC1CCCN(CCc2cn3c(C(=O)NCC45CC6CC(CC(C6)C4)C5)cccc3n2)C1 (stereo not shown) [Compound 118, 2-[2-(3-amino-piperidin-1-yl)-ethyl]-imidazo[1,2-a]pyridine-5-carboxylic acid (adamantan-1-ylmethyl)-amide] |
| < 2 | O=C(NCCCO)c1cn2c(C(=O)NCC34CC5CC(CC(C5)C3)C4)cccc2n1 [Compound 80, 5-N-(adamantan-1-ylmethyl)--(3-hydroxy-propyl)imidazo[1,2-a]pyridine-2,5-dicarboxamide] |
| < 2 | O=C(Cc1cn2c(C(=O)NCC34CC5CC(CC(C5)C3)C4)cccc2n1)NCCO [Compound 26, N-(adamantan-1-ylmethyl)-2-{2-[(2-hydroxyethyl)amino]-2-oxoethyl}imidazo[1,2-a]pyridine-5-carboxamide] |
| < 2 | O=C(NCC12CC3CC(CC(C3)C1)C2)c1cccc2nc(Cn3cncc3CO)cn12 [Compound 200, N-(adamantan-1-ylmethyl)-2-{[5-(hydroxymethyl)-1H-imidazol-1-yl]methyl}imidazo[1,2-a]pyridine-5-carboxamide] |

same assay, conditions: fluorescence response of cells exposed to 80 μM 2′(3′)-O-(4-benzoyl-benzoyl)adenosine 5′-triphosphate; Example 4A; read-out: IC50

| IC50 [µM] | Compound |
| --- | --- |
| < 2 | CC(C)C(=O)NC1CCN(C(=O)c2cn3c(NC(=O)CC45CC6CC(CC(C6)C4)C5)cccc3n2)CC1 [Compound 402, N-[1-({5-[(adamantan-1-ylacetyl)amino]imidazo[1,2-a]pyridin-2-yl}carbonyl)piperidin-4-yl]-2-methylpropanamide] |
| < 2 | COCCC1CCN(C(=O)c2cn3c(NC(=O)CC45CC6CC(CC(C6)C4)C5)cccc3n2)CC1 [Compound 389, 2-adamantan-1-yl-N-(2-{[4-(2-methoxyethyl)piperidin-1-yl]carbonyl}imidazo[1,2-a]pyridin-5-yl)acetamide] |
| < 2 | N[C@@H]1CCN(Cc2cn3c(NC(=O)CC45CC6CC(CC(C6)C4)C5)cccc3n2)C1 [Compound 299, 2-adamantan-1-yl-N-(2-{[(3R)-3-aminopyrrolidin-1-yl]methyl}imidazo[1,2-a]pyridin-5-yl)acetamide] |
| < 2 | CC(C)CC(CNC(=O)c1cccc2nc(CC(=O)NCC(F)(F)F)cn12)c1ccccc1 (stereo not shown) [Compound 229, N-(4-methyl-2-phenylpentyl)-2-{2-oxo-2-[(2,2,2-trifluoroethyl)amino]ethyl}imidazo[1,2-a]pyridine-5-carboxamide] |
